Reference: US12138383B2, “Heating unit for use in a drug delivery device” (ALEXZA PHARMACEUTICALS, INC., priority 2007, dated 2024)

Assay: Aerosol purity of condensation aerosol vaporized from drug-coated substrate in substrate screening apparatus (HPLC of filter extract)
Assay type: physicochemical
Settings: for Aerosol Purity (% ± SD): perforated 304 stainless steel, 0.4 mg/cm^2, approx. 375° C.; for Aerosol Purity (%): 14 μm coating, 30 liters/minute
From the text: The substrate screening apparatus 400 is made of a machined plastic (polyoxymethylene, DELRIN® Acetal Resin, DuPont, Wilmington, DE) block 402 with a 2 cm^2 cross-sectional area for mounting a substrate 412. Block 402 includes a first airway 404 extending from first inlet 414 to outlet 422. Block 402 also include a second airway 406 extending from second inlet 416 to substrate 412, where it typically joins the first airway. The substrate 412 is mounted in the substrate screening apparatus 400 across two electrodes 420. A first air flow 414 is established in first airway 404 and a second air flow 416 is established in second airway 406 such that the second air flow 416 passes from the second airway 406 to first airway 404 through holes in the substrate 412. While providing air flows 414 and 416, the substrate 412 is heated, typically by discharging a capacitor (not shown) across the substrate 412. In a one embodiment, the flow of air passing through holes in the substrate 412 is in a direction orthogonal to that of air flow 414. Substrate 412 is coated with a drug composition film. The substrate 412 is heated to vaporized all or a portion of the drug composition. The vaporized drug subsequently cools and condenses to form a condensation aerosol that is carried to the outlet by air flow 414, joined by air flow 416). Accordingly, the condensation aerosol is emitted from the outlet 422.
The test substrates were then coated with a drug composition. The drug was typically dissolved in a volatile organic solvent (e.g., dichloromethane/methanol mixture or acetone or other suitable organic solvent) and then spray-coated onto the test substrates using an automated spray coater. Coating parameters, such as the drug concentration in the coating solution, solution flow rate, were selected to obtain a uniform drug coating of the desired coating density (i.e., mass/area).
Total air flow through the substrate screening apparatus was set by providing air flows 414 and 416 at a desired ratio. (As used herein, “across” air flow refers to air flow 414 and “bottom” air flow refers to air flow 416.) Brass electrodes 420 attached to the substrate screening apparatus 400 were used to clamp the substrate 412 in place and provide electrical connections. For most experiments, a 1-Farad capacitor was used as the energy source. The capacitor was typically charged to 11-14 volts, depending on the desired substrate temperature. A high current relay was used to connect the circuit and discharge the capacitor across the substrate to induce heating and vaporization of the drug.
FIG. 5 is a schematic of another embodiment of a substrate screening apparatus 500 that was used to direct air flow through the holes of coated polyimide film (KAPTON® polyimide film) substrates (see FIGS. 2A and 2B). Substrate screening apparatus 500 is similar in configuration and operation to substrate screening apparatus 400, with the exception that substrate screening apparatus 500 includes two electrodes 502 on the same side of the screening apparatus 500, whereas substrate screening apparatus 400 includes two electrodes 420 on opposite sides of the screening apparatus 400. In the examples using polyimide film substrates described below, a polyimide film substrate coated with a drug composition was placed in substrate screening apparatus 500 across electrodes 502. A computer-controlled power supply was connected to the electrodes. The power supply was typically capable of heating the polyimide film substrate to the target temperature within 300 milliseconds, and the substrate was kept at the target temperature for a duration of 1 second.
To determine aerosol purity and emitted dose, a 2 μm Teflon filter (ZEFLUOR PTFE filters, available from Zefon International, Inc., Ocala, FL) was placed immediately downstream from the screening apparatus during aerosol generation. […]

C[C@@H]1C[C@H]2[C@@H]3CCC4=CC(=O)C=C[C@]4(C)[C@@]3(Cl)[C@@H](O)C[C@]2(C)[C@@]1(OC(=O)c1ccco1)C(=O)CCl
aerosol purity (non-perforated SULFINERT-treated and heat-passivated 304 stainless steel, 350° C., no air flow ratio): poor

CC1(C)O[C@@H]2C[C@H]3[C@@H]4C[C@H](F)C5=CC(=O)C=C[C@]5(C)[C@H]4[C@@H](O)C[C@]3(C)[C@]2(C(=O)CO)O1 [Flunisolide, flunisolide]
Aerosol Purity (% ± SD) (across:bottom 18:10, hole diameter 0.005″, porosity 5%): 80.1 ± 1.8% | Aerosol Purity (% ± SD) (across:bottom 18:10, hole diameter 0.005″, porosity 10%): 81.4 ± 0.9% | Aerosol Purity (% ± SD) (across:bottom 18:10, hole diameter 0.005″, porosity 20%): 90.7 ± 0.7% | Aerosol Purity (% ± SD) (across:bottom 18:10, hole diameter 0.010″, porosity 5%): 83.6 ± 1.4% | Aerosol Purity (% ± SD) (across:bottom 18:10, hole diameter 0.010″, porosity 10%): 75.4 ± 1.2% | Aerosol Purity (% ± SD) (across:bottom 18:10, hole diameter 0.010″, porosity 20%): 80.8 ± 1.4% | Aerosol Purity (% ± SD) (across:bottom 18:10, hole diameter 0.010″, porosity 40%): 85.6 ± 0.8% | Aerosol Purity (% ± SD) (across:bottom 18:10, hole diameter 0.020″, porosity 5%): 77.8 ± 2% | Aerosol Purity (% ± SD) (across:bottom 18:10, hole diameter 0.020″, porosity 10%): 77.2 ± 2.8% | Aerosol Purity (% ± SD) (across:bottom 18:10, hole diameter 0.020″, porosity 20%): 74.7 ± 1% | Aerosol Purity (% ± SD) (across:bottom 18:10, hole diameter 0.020″, porosity 40%): 81.9 ± 1.2% | Aerosol Purity (% ± SD) (across:bottom 18:10, hole diameter 0.040″, porosity 5%): 70.4 ± 1.1% | Aerosol Purity (% ± SD) (across:bottom 18:10, hole diameter 0.040″, porosity 40%): 77 ± 1% | Aerosol Purity (% ± SD) (across:bottom 23:5, hole diameter 0.005″, porosity 5%): 73.6 ± 2.3% | Aerosol Purity (% ± SD) (across:bottom 23:5, hole diameter 0.005″, porosity 10%): 82.7 ± 1.4% | Aerosol Purity (% ± SD) (across:bottom 23:5, hole diameter 0.005″, porosity 20%): 87.9 ± 2% | Aerosol Purity (% ± SD) (across:bottom 23:5, hole diameter 0.010″, porosity 5%): 76.1 ± 0.1% | Aerosol Purity (% ± SD) (across:bottom 23:5, hole diameter 0.010″, porosity 10%): 71.4 ± 0.7% | Aerosol Purity (% ± SD) (across:bottom 23:5, hole diameter 0.010″, porosity 20%): 80.6 ± 3.1% | Aerosol Purity (% ± SD) (across:bottom 23:5, hole diameter 0.010″, porosity 40%): 84.2 ± 0.1% | Aerosol Purity (% ± SD) (across:bottom 23:5, hole diameter 0.020″, porosity 5%): 77.9 ± 1.1% | Aerosol Purity (% ± SD) (across:bottom 23:5, hole diameter 0.020″, porosity 10%): 72.7 ± 1.8% | Aerosol Purity (% ± SD) (across:bottom 23:5, hole diameter 0.020″, porosity 20%): 69.9 ± 0.3% | Aerosol Purity (% ± SD) (across:bottom 23:5, hole diameter 0.020″, porosity 40%): 80 ± 1.3% | Aerosol Purity (% ± SD) (across:bottom 23:5, hole diameter 0.040″, porosity 5%): 68.6 ± 1.1% | Aerosol Purity (% ± SD) (across:bottom 23:5, hole diameter 0.040″, porosity 40%): 74.3 ± 7.3%

CN1CCN(CCCN2c3ccccc3Sc3ccc(Cl)cc32)CC1 [Prochlorperazine, prochlorperazine]
Coated Aerosol Purity (%) (coated drug on polyimide film, coating thickness 14 μm): 98.85% | aerosol purity (perforated polyimide film, 100% of air flow through the substrate, up to at least 30 μm coating thickness, 28.3 liters/minute): ≥ 98% | Aerosol Purity (%) (perforated polyimide film, large holes, across:bottom 75:25): 97.7% | Aerosol Purity (%) (perforated polyimide film, large holes, across:bottom 100:0): 97.1% | Aerosol Purity (%) (perforated polyimide film, small holes, across:bottom 75:25): 97.4% | Aerosol Purity (%) (perforated polyimide film, small holes, across:bottom 100:0): 94.8%

NCC(CC(=O)O)c1ccc(Cl)cc1 (stereo not drawn) [baclofen]
drug purity (aerosol) (perforated polyimide film, across:bottom 27:1, 350° C.): around 20%

CCC(=O)O[C@]1(C(=O)SCF)[C@H](C)C[C@H]2[C@@H]3C[C@H](F)C4=CC(=O)C=C[C@]4(C)[C@@]3(F)[C@@H](O)C[C@@]21C [fluticasone propionate]
aerosol purity (perforated polyimide film, all four test conditions (3:1 and 1:3, 325° C. and 350° C.)): > 97%

CCCc1nn(C)c2c(=O)[nH]c(-c3cc(S(=O)(=O)N4CCN(C)CC4)ccc3OCC)nc12 [sildenafil free base, sildenafil]
aerosol purity (perforated 316 stainless steel, 1:9 across:bottom, drug coating thicknesses up to 6 μm, 28.3 liters/minute): ≥ 97% | aerosol purity (solid 304 stainless steel, 100% air flow across, drug coating thickness 2 μm): ≤ 94% | aerosol purity (solid 304 stainless steel, 100% air flow across, drug coating thicknesses greater than about 1 μm): below 97%

cyclobenzaprine fumarate
aerosol purity (perforated polyimide film, all three test conditions (6:1 at 375° C., 3:1 at 350° C., 1:1 at 350° C.)): > 99.7%
